# Source: patent publication US20240197746A1, “COMBINATION THERAPY WITH A MEK INHIBITOR AND A SRC INHIBITOR FOR THE TREATMENT OF COLORECTAL CANCER” (Yeda Research and Development Co. Ltd., priority 2021, published 2024)
# Read-outs that look alike come from different tables or passages of the source.
# Tested on: fresh & PDX human tumors
# Test: EVOC drug dose calibration, cell death by H&E viability score
# Type: cell-based
# Source text: Tissue acquisition and EVOC. Female NOD scid gamma (NSG) mice (4-6 months old) bearing PDX tumors were purchased from Jackson Laboratories. Mice arrived to the facility when the tumors had grown sufficiently to be apparent (approximately 60 mm^3) and were maintained until the maximal permitted tumor volume of 1,000 mm^3 was achieved. Mice were killed with CO2, and tumor tissues were removed and placed in ice-cold PBS. Tumors were sliced into 250-μm-thick slices using a vibratome (VF300, Precisionary Instruments) and placed in six-well plates on titanium grids (MA0036, Alabama R&D) with 4 ml of DMEM/F12 medium (supplemented with 5% fetal calf serum, 100 IU ml^−1 penicillin with 100 μg ml−1 streptomycin, 2.5 μg ml^−1 amphotericin B, […] gentamicin sulfate and 100 μl ml−1 l-glutamine). Tissue was cultured at 37° C. with 5% CO2 and 80% O2 on an orbital shaker (TOU-120N, MRC) at 70 r.p.m. The following day, tissue was treated with drugs as indicated for 96 h (medium was changed after 48 h and fresh drug was added), followed by formalin fixing and paraffin embedding after overnight fixation in 4% paraformaldehyde. Note that duplicates and triplicates were assigned randomly to mimic heterogeneity within the tumor tissue in vivo.
# Human tumor tissue, either from primary colon cancer or metastatic lesions, was obtained from individuals at the time of operation or at the time of tissue core biopsy. After resection, the fresh tissue was placed in ice-cold PBS for immediate transfer to the lab for EVOC. Specimens were coded anonymously before their arrival to the lab. Forty-six individuals were enrolled in the study and had sufficient tumor volume at operation or accessible tumors for core biopsy to allow us to perform EVOC. In one individual, both primary and metastatic cancer tissue was obtained so that 47 samples in total were studied. In 14 individuals, there was either adenoma or not enough tumor tissue for evaluation. In an additional three individuals, the tissue was necrotic before slicing and EVOC. In one individual, the tissue culture was contaminated, and in one individual, the fixation was insufficient. Finally, 29 CRC primary or metastatic tumors from 28 individuals were analyzed by EVOC.
# Histologic sections were assessed for viability by an independent blinded pathologist. Tissue viability was scored on a scale from 0 to 4, where 0 is less than 10% viable tissue and 4 is more than 90% viable tissue. Scores of 3, 2 and 1 correspond to tissue viability of 61-90%, 31-60% and 10-30%, respectively.
# Determination of drug treatment concentrations. To determine the concentration of each drug to be used in the ex vivo screen, we first calibrated the effect of multiple concentrations of each drug on PDX CRC tumors. For the screens, we selected the doses that were minimally effective in killing tissue after 4 d of treatment as evaluated by H&E staining. […] In addition, when testing targeted therapies, the present inventors validated that the chosen drug concentrations were effective in inhibiting their targets. This was evaluated by immunohistochemical staining after 24 h of treatment (FIGS. 11A-C). Here again, the lowest drug concentration that was enough to inhibit the drug target was used.
# [1] = EVOC, concentrations that demonstrate a difference in amount of cell death in individual patient tissues
Structure (SMILES),Range eliciting differential response [1],Range eliciting differential response
N.N.[Cl][Pt][Cl] [Cisplatin],0.3-30^ uM,–
"Cl.Cl.O=S(=O)(NCCNC/C=C/c1ccc(Br)cc1)c1cccc2cnccc12 [H89 2HCl, H-89 dihydrochloride]",1 to 16 µM,–
COc1ccc(C2=N[C@@H](c3ccc(Cl)cc3)[C@@H](c3ccc(Cl)cc3)N2C(=O)N2CCNC(=O)C2)c(OC(C)C)c1 [Nutlin],4 to 16 µM,–
O=C1[O][Pt]2([NH][C@@H]3CCCC[C@H]3[NH]2)[O]C1=O [Oxaliplatin],–,2 to 64 µM
Cc1cc(Nc2cc(N3CCN(C)CC3)nc(Sc3ccc(NC(=O)C4CC4)cc3)n2)n[nH]1 [VX-680],1 to 16 µM,–
